Measurements published in patent publication US6878722B2, “Substituted cycloalkyl P1′ hepatitis C virus inhibitors” (Bristol-Myers Squibb Company, priority 2002, dated 2005).
Read-outs that look alike come from different tables or passages of the source.

Columns and labels:
[1] = target: T1, HCV NS3/4A protease complex (BMS strain, genotype 1a) (Hepatitis C virus genotype 1a, UniProt P27958, C1454S); experiment: Recombinant HCV NS3/4A protease complex FRET peptide assay, BMS strain; assay type: biochemical; settings: IC50 range, NS3/4A BMS Strain
T1 construct: DNA encoding the recombinant HCV NS3/4A protease complex (amino acids 1027 to 1711) for these strains; inferred from the pET21b vector and Ni-NTA purification; made in house; host or cells: Escherichia coli BL21 (DE3), pET21b
Outline: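 Recombinant NS3/4A complex (aa 1027–1711) with C-terminal three-lysine tail, C1711G and C1454S, expressed in E. coli BL21(DE3) and purified by Ni-NTA then Superdex-S200. Inhibition of the complex from each strain measured in vitro by FRET peptide cleavage.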

[2] = test system: HCV replicon in Huh7 cells; experiment: HCV replicon cell-based assay (FRET); settings: Hepatitis C virus
Outline: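 Huh7 cells stably carrying a genotype 1b HCV replicon (IRES-neo-EMCV-IRES-NS3-NS5B) were treated with compound for 4 days at 37 °C in 0.5% DMSO final. Lysates containing 10 μM FRET peptide RET S1 were read kinetically at 340/490 nm to give NS3 protease activity, from which EC50 was derived.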

[3] = Huh-7, HCV replicon, read-out: EC50 range

T1 sequence (P27958 1658-1714, looked up, stated change not applied): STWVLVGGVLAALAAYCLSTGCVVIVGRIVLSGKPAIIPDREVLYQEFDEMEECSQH
T1 sequence (P27958 1027-1657, looked up, stated change not applied): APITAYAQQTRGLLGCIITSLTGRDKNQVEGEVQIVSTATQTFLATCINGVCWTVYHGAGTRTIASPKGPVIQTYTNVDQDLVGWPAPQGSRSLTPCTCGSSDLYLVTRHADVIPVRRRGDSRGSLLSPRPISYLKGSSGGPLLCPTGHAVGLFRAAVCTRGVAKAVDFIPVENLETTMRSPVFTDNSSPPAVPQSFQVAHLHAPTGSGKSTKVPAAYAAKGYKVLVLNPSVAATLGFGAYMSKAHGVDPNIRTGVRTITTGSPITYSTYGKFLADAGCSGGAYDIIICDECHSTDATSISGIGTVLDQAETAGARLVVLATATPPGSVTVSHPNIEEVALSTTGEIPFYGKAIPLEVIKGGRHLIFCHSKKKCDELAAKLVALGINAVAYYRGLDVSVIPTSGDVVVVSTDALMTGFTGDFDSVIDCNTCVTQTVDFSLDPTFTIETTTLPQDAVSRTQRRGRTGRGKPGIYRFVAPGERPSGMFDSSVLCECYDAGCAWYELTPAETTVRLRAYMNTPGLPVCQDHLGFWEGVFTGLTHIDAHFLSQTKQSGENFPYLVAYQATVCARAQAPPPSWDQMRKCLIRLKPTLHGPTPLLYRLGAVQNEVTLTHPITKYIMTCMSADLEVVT

Row | SMILES | IC50 [1] [nM] | EC50 [2, 3] [nM] | EC50 ([2]; Huh-7, read-out: EC50 range) [nM]
1 | COc1ccc2c(O[C@@H]3C[C@@H](C(=O)N[C@]4(C(=O)NS(=O)(=O)C5(CC6CC6)CC5)CC4C4CC4)N(C(=O)[C@@H](NC(=O)OC(C)(C)C)C(C)(C)C)C3)cc(-c3ccccc3)nc2c1 (stereo partly drawn) [Compound 205] | < 50 | 50 to 500 | 
2 | C=C[C@@H]1C[C@]1(NC(=O)[C@@H]1C[C@@H](Oc2cc(C3CC3)nc3cc(OC)ccc23)CN1C(=O)[C@@H](NC(=O)OC(C)(C)C)C(C)(C)C)C(=O)NS(=O)(=O)C1(Cc2ccccc2)CC1 [Compound 68, BOCNH—P3(L-t-BuGly)-P2[(4R)-(2-cyclopropyl-7-methoxyquinoline-4-oxo)-S-proline]-P1(1R,2S Vinyl Acca)-CONHSO2(1-benzylclopropan-1-yl)] | < 50 |  | 50 to 500
3 | COc1ccc2c(O[C@@H]3C[C@@H](C(=O)NC4(C(=O)NS(=O)(=O)C5(C6=CCCCC6)CC5)CC4)N(C(=O)[C@@H](NC(=O)OC(C)(C)C)C(C)(C)C)C3)cc(-c3ccccc3)nc2c1 [Compound 76, {1-[2-[1-(1-Cyclohex-1-enyl-cyclopropanesulfonylaminocarbonyl)-cyclopropylcarbamoyl]-4-(7-methoxy-2-phenyl-quinolin-4-yloxy)-pyrrolidine-1-carbonyl]-2,2-dimethyl-propyl}-carbamic acid tert-butyl ester] | 50 to 500 | 500 to 5000 | 
4 | C=CC1C[C@]1(NC(=O)[C@@H]1C[C@@H](Oc2cc(-c3ccccc3)nc3cc(OC)ccc23)CN1C(=O)[C@@H](NC(=O)OC(C)(C)C)C(C)(C)C)C(=O)NS(=O)(=O)C1(CC2CC2)CC1 (stereo partly drawn) [Compound 8, {1-[2-[1-(1-Cyclopropylmethyl-cyclopropanesulfonylaminocarbonyl)-2-vinyl-cyclopropylcarbamoyl]-4-(7-methoxy-2-phenyl-quinolin-4-yloxy)-pyrrolidine-1-carbonyl]-2,2-dime-thylpropyl}-carbamic acid tert-butyl ester] | < 50 | < 50 | 
5 | C=CC1C[C@]1(NC(=O)[C@@H]1C[C@@H](Oc2cc(-c3ccccc3)nc3cc(OC)ccc23)CN1C(=O)[C@@H](NC(=O)OC(C)(C)C)C(C)(C)C)C(=O)NS(=O)(=O)C1(C(=O)Nc2ccccc2)CC1 (stereo in doubt) [Compound 6, (1-{4-(7-Methoxy-2-phenyl-quinolin-4-yloxy)-2-[1-(1-phenylcarbamoyl-cyclopropane-sulfonylaminocarbonyl)-2-vinylcyclopropylcarbamoyl]-pyrrolidine-1-carbonyl}-2,2-dimethyl-propyl)carbamic acid tert-butyl ester] | < 50 | 50 to 500 | 
6 | COc1ccc2c(O[C@@H]3C[C@@H](C(=O)NC4(C(=O)NS(=O)(=O)C5(C(=O)Nc6ccccc6)CC5)CC4)N(C(=O)[C@@H](NC(=O)OC(C)(C)C)C(C)(C)C)C3)cc(-c3ccccc3)nc2c1 [Compound 72, (1-{4-(7-Methoxy-2-phenyl-quinolin-4-yloxy)-2-[1-(1-phenylcarbamoyl-cyclopropanesulfonylaminocarbonyl)-cyclopropylcarbamoyl]-pyrrolidine-1-carbonyl}-2,2-dimethyl-propyl)-carbamic acid tert-butyl ester] | 500 to 5000 | 5000 to 50000 | 
7 | C=C[C@@H]1C[C@]1(NC(=O)[C@@H]1C[C@@H](Oc2cc(-c3ccccc3)nc3cc(OC)ccc23)CN1C(=O)[C@@H](NC(=O)CC1CC1)C(C)(C)C)C(=O)NS(=O)(=O)C1(Cc2ccccc2)CC1 [Compound 58, 1-[2-(2-Cyclopropyl-acetylamino)-3,3-dimethyl-butyryl]-4-(7-methoxy-2-phenyl-quinolin-4-yloxy)-pyrrolidine-2-carboxylic acid [1-(1-benzyl-cyclopropanesulfonylaminocarbonyl)-2-vinyl-cyclopropyl]-amide] | < 50 | 50 to 500 | 
8 | COc1ccc2c(O[C@@H]3C[C@@H](C(=O)NC4(C(=O)NS(=O)(=O)C5(Cc6ccccc6)CC5)CC4)N(C(=O)[C@@H](NC(=O)OC(C)(C)C)C(C)(C)C)C3)cc(-c3ccccc3)nc2c1 [Compound 74, {1-[2-[1-(1-Benzyl-cyclopropanesulfonylaminocarbonyl)-cyclopropylcarbamoyl]-4-(7-methoxy-2-phenyl-quinolin-4-yloxy)-pyrrolidine-1-carbonyl]-2,2-dimethyl-propyl}-carbamic acid tert-butyl ester] | 500 to 5000 | 5000 to 50000 | 
9 | C=C[C@@H]1C[C@]1(NC(=O)[C@@H]1C[C@@H](Oc2cc(-c3ccccc3)nc3cc(OC)ccc23)CN1C(=O)[C@@H](NC(=O)OCCOC)C(C)(C)C)C(=O)NS(=O)(=O)C1(Cc2ccccc2)CC1 [Compound 104] | 50 to 500 | 500 to 5000 | 
10 | C=C[C@@H]1C[C@]1(NC(=O)[C@@H]1C[C@@H](Oc2cc(-c3ccccc3)nc3cc(OC)ccc23)CN1C(=O)[C@@H](NC(=O)CCOC)C(C)(C)C)C(=O)NS(=O)(=O)C1(Cc2ccccc2)CC1 [Compound 112] | 50 to 500 | 50 to 500 | 
11 | C=C[C@@H]1C[C@]1(NC(=O)[C@@H]1C[C@@H](Oc2cc(-c3ccccc3)nc3cc(OC)ccc23)CN1C(=O)[C@@H](NC(=O)C1CCOCC1)C(C)(C)C)C(=O)NS(=O)(=O)C1(Cc2ccccc2)CC1 [Compound 60, 1-{3,3-Dimethyl-2-[(tetrahydro-pyran-4-carbonyl)-amino]-butyryl}-4-(7-methoxy-2-phenyl-quinolin-4-yloxy)-pyrrolidine-2-carboxylic acid [1-(1-benzyl-cyclopropanesulfonylaminocarbonyl)-2-vinyl-cyclopropyl]-amide] | < 50 | 500 to 5000 | 
12 | C=C[C@@H]1C[C@]1(NC(=O)[C@@H]1C[C@@H](Oc2cc(-c3ccccc3)nc3cc(OC)ccc23)CN1C(=O)[C@@H](NC(=O)Oc1ccc(C)cc1)C(C)(C)C)C(=O)NS(=O)(=O)C1(Cc2ccccc2)CC1 [Compound 100] | 50 to 500 | 500 to 5000 | 
13 | C=CCC1(S(=O)(=O)NC(=O)[C@@]2(NC(=O)[C@@H]3C[C@@H](Oc4cc(-c5ccccc5)nc5cc(OC)ccc45)CN3C(=O)[C@@H](NC(=O)OC(C)(C)C)C(C)(C)C)CC2C=C)CC1 (stereo partly drawn) [Compound 2, {1-[2-[1-(1-Allylcyclopropanesul-fonylaminocarbonyl)-2-vinylcyclopropylcarbamoyl]-4-(7-methoxy-2-phenylquinolin-4-yloxy)-pyrrolidine-1-carbonyl]-2,2-dimethylpropyl}carbamic acid tert-butyl ester] | < 50 | < 50 | 
14 | C=C[C@@H]1C[C@]1(NC(=O)[C@@H]1C[C@@H](Oc2cc(-c3ccccc3)nc3cc(OC)ccc23)CN1C(=O)[C@@H](NC(=O)CC1CCOCC1)C(C)(C)C)C(=O)NS(=O)(=O)C1(Cc2ccccc2)CC1 [Compound 59, 1-[3,3-Dimethyl-2-(2-tetrahydro-pyran-4-yl-acetylamino)-butyryl]-4-(7-methoxy-2-phenyl-quinolin-4-yloxy)-pyrrolidine-2-carboxylic acid [1-(1-benzyl-cyclopropanesulfonylaminocarbonyl)-2-vinyl-cyclopropyl]-amide] | < 50 | 50 to 500 | 
15 | C=C[C@@H]1C[C@]1(NC(=O)[C@@H]1C[C@@H](Oc2cc(-c3csc(NC(C)C)n3)nc3cc(OC)ccc23)CN1C(=O)[C@@H](NC(=O)OC(C)(C)C)C(C)(C)C)C(=O)NS(=O)(=O)C1(CC2CC2)CC1 [Compound 80, (1-{2-[1-(1-Cyclopropylmethyl-cyclopropanesulfonylaminocarbonyl)-2-vinyl-cyclopropylcarbamoyl]-4-[2-(2-isopropylamino-thiazol-4-yl)-7-methoxy-quinolin-4-yloxy]-pyrrolidine-1-carbonyl}-2,2-dimethyl-propyl)-carbamic acid tert-butyl ester] | < 50 | 50 to 500 | 
16 | C=C[C@@H]1C[C@]1(NC(=O)[C@@H]1C[C@@H](Oc2cc(-c3ccccc3)nc3cc(OC)ccc23)CN1C(=O)[C@@H](NC(=O)Oc1cccc(C(F)(F)F)c1)C(C)(C)C)C(=O)NS(=O)(=O)C1(Cc2ccccc2)CC1 [Compound 108] | 50 to 500 | 500 to 5000 | 
17 | C=C[C@@H]1C[C@]1(NC(=O)[C@@H]1C[C@@H](Oc2cc(-c3ccccc3)nc3cc(OC)ccc23)CN1C(=O)[C@@H](NC(=O)OC(C)(C)C)C(C)(C)C)C(=O)NS(=O)(=O)C1(Cl)CC1 [Compound 38, {1-[2-[1-(1-Chloro-cyclopropanesulfonylaminocarbonyl)-2-vinyl-cyclopropylcarbamoyl]-4-(7-methoxy-2-phenyl-quinolin-4-yloxy)-pyrrolidine-1-carbonyl]-2,2-dimethyl-propyl}-carbamic acid tert-butyl ester] | < 50 | < 50 | 
18 | C=CC1C[C@]1(NC(=O)[C@@H]1C[C@@H](Oc2cc(-c3ccccc3)nc3cc(OC)ccc23)CN1C(=O)[C@@H](NC(=O)OC(C)(C)C)C(C)(C)C)C(=O)NS(=O)(=O)C1(C2=CCCCC2)CC1 (stereo in doubt) [Compound 3, {1-[2-[1-(1-Cyclohex-1-enyl-cyclopropanesulfonylaminocarbonyl)-2-vinylcyclopropylcarbamoyl]-4-(7-methoxy-2-phenyl-quinolin-4-yloxy)pyrrolidine-1-carbonyl]-2,2-dimethylpropyl}carbamic acid tert-butyl ester] | 50 to 500 | 50 to 500 | 
